PubChem BioAssay AID248 (DTP/NCI, 2004)
Where “and” joins values, the source holds several entries; their conditions need not be identical. Equal entries are not always repeated. Toxic doses and inconclusive results are not listed. No stated cut-off is given here; in the data, active means T/C of 150% or more; inactive means T/C below 125%.

System: L1210 leukemia ip in BDF1 mice, survival T/C
Assay: NCI In Vivo Anticancer Drug Screen. Data for tumor model L1210 Leukemia (intraperitoneal) in B6D2F1 (BDF1) mice
Conditions: endpoint: mean survival time, higher = longer survival
In short: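 Survival endpoint. Drug-treated group vs vehicle group, expressed as T divided by C. Tumor passaged by transplantation.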

[1] = dose: 100.0 mg/kg/injection, schedule: Q04DX003 (ip), vehicle: saline with Tween-80
[2] = dose: 200.0 mg/kg/injection, schedule: Q04DX003 (ip), vehicle: saline with Tween-80
[3] = dose: 100.0 mg/kg/injection, schedule: Q01DX009 (ip), vehicle: saline with Tween-80
[4] = dose: 200.0 mg/kg/injection, schedule: Q01DX009 (ip), vehicle: saline with Tween-80
[5] = dose: 100.0 mg/kg/injection, schedule: Q01DX001 (ip), vehicle: carboxymethylcellulose (CMC)
[6] = dose: 200.0 mg/kg/injection, schedule: Q01DX001 (ip), vehicle: carboxymethylcellulose (CMC)
[7] = dose: 400.0 mg/kg/injection, schedule: Q01DX001 (ip), vehicle: carboxymethylcellulose (CMC)
[8] = dose: 100.0 mg/kg/injection, schedule: Q01DX009 (ip), vehicle: Klucel (hydroxypropylcellulose) (HPC)
[9] = dose: 200.0 mg/kg/injection, schedule: Q01DX009 (ip), vehicle: Klucel (hydroxypropylcellulose) (HPC)
[10] = dose: 400.0 mg/kg/injection, schedule: Q01DX009 (ip), vehicle: Klucel (hydroxypropylcellulose) (HPC)
[11] = dose: 50.0 mg/kg/injection, schedule: Q01DX001 (ip), vehicle: carboxymethylcellulose (CMC)
[12] = dose: 100.0 mg/kg/injection, schedule: Q04DX003 (ip), vehicle: Klucel (hydroxypropylcellulose) (HPC)
[13] = dose: 200.0 mg/kg/injection, schedule: Q04DX003 (ip), vehicle: Klucel (hydroxypropylcellulose) (HPC)
[14] = dose: 400.0 mg/kg/injection, schedule: Q04DX003 (ip), vehicle: Klucel (hydroxypropylcellulose) (HPC)
[15] = dose: 400.0 mg/kg/injection, schedule: Q04DX003 (ip), vehicle: saline with Tween-80

Measured: T/C

O=c1cc(O)nc(C(F)(F)F)[nH]1
inactive: dose: 29.0 mg/kg/injection, schedule: Q01DX Z (ip), vehicle: methylcellulose (MC) 92 % of control | dose: 44.0 mg/kg/injection, schedule: Q01DX Z (ip), vehicle: methylcellulose (MC) 96 % of control | dose: 66.0 mg/kg/injection, schedule: Q01DX Z (ip), vehicle: methylcellulose (MC) 103 % of control | dose: 100.0 mg/kg/injection, schedule: Q01DX Z (ip), vehicle: methylcellulose (MC) 100 % of control

Oc1ccc(Br)cc1-c1nc2cc3ccccc3cc2nc1-c1cc(Br)ccc1O
inactive: dose: 100.0 mg/kg/injection, schedule: Q01DX001 (ip), vehicle: saline 103 % of control | dose: 200.0 mg/kg/injection, schedule: Q01DX001 (ip), vehicle: saline 96 % of control | dose: 400.0 mg/kg/injection, schedule: Q01DX001 (ip), vehicle: saline 94 % of control

C/C=C/C=N/n1c(CCC)nc2ccccc2c1=O
inactive: dose: 100.0 mg/kg/injection, schedule: Q04DX002 (ip), vehicle: Klucel (hydroxypropylcellulose) (HPC) 90 % of control | dose: 200.0 mg/kg/injection, schedule: Q04DX002 (ip), vehicle: Klucel (hydroxypropylcellulose) (HPC) 104 % of control

CCC(C)C(C(=O)OCCN(C)C)c1ccccc1 (centres undefined)
inactive: [1] 98 % of control | [2] 92 % of control

C#CCN(CC#C)C(C)=O
inactive: dose: 100.0 mg/kg/injection, schedule: Q04DX002 (ip), vehicle: saline 91 % of control | dose: 200.0 mg/kg/injection, schedule: Q04DX002 (ip), vehicle: saline 94 % of control

Clc1ccc2c(NCCc3cnc[nH]3)ccnc2c1
inactive: [3] 94 % of control | [4] 94 % of control

C/C(=N/O)c1ccc2c(c1)Cc1ccccc1-2
inactive: [5] 105 % of control | [6] 100 % of control | [7] 98 % of control

CN(C)Cc1ccccc1C(O)(c1ccccc1)c1ccccc1CN(C)C
inactive: dose: 8.0 mg/kg/injection, schedule: Q01DX015 (ip), vehicle: carboxymethylcellulose (CMC) 91 % of control | dose: 16.0 mg/kg/injection, schedule: Q01DX015 (ip), vehicle: carboxymethylcellulose (CMC) 90 % of control | dose: 32.0 mg/kg/injection, schedule: Q01DX015 (ip), vehicle: carboxymethylcellulose (CMC) 88 % of control

COc1cc(OC)c(NC(=O)C2CC2)cc1Cl
inactive: [8] 110 % of control | [9] 104 % of control | [10] 110 % of control

c1ccc(C2C(c3ccccc3)N2c2ccccc2)cc1 (centres undefined)
inactive: [11] 105 % of control | [5] 113 % of control | [12] 92 % of control | [1] 97 % of control | [6] 113 % of control | [13] 94 % of control | [2] 90 % of control | [7] 103 % of control | [14] 92 % of control | [15] 87 % of control

CC(/C=N/N/C(N)=N\N)=N\N/C(N)=N/N
inactive: dose: 15.0 mg/kg/injection, schedule: Q01DX Z (ip), vehicle: methylcellulose (MC) 105 % of control | dose: 30.0 mg/kg/injection, schedule: Q01DX Z (ip), vehicle: methylcellulose (MC) 103 % of control | dose: 60.0 mg/kg/injection, schedule: Q01DX Z (ip), vehicle: methylcellulose (MC) 98 % of control | dose: 120.0 mg/kg/injection, schedule: Q01DX Z (ip), vehicle: methylcellulose (MC) 104 % of control | dose: 240.0 mg/kg/injection, schedule: Q01DX Z (ip), vehicle: methylcellulose (MC) 98 % of control

COC(OC)c1[nH]c(=S)[nH]c(=O)c1CCCc1ccccc1
inactive: [3] 94 % of control | [1] 100 % of control | [4] 105 % of control | [2] 100 % of control | dose: 400.0 mg/kg/injection, schedule: Q01DX009 (ip), vehicle: saline with Tween-80 86 % of control | [15] 96 % of control

CCCCC(=O)C1CN(C(C)(C)C)C1
inactive: dose: 5.0 mg/kg/injection, schedule: Q01DX001 (ip), vehicle: saline 102 % of control | dose: 5.0 mg/kg/injection, schedule: Q01DX009 (ip), vehicle: saline 104 % of control | dose: 10.0 mg/kg/injection, schedule: Q01DX001 (ip), vehicle: saline 97 % of control | dose: 10.0 mg/kg/injection, schedule: Q01DX009 (ip), vehicle: saline 111 % of control | dose: 20.0 mg/kg/injection, schedule: Q01DX001 (ip), vehicle: saline 102 % of control | dose: 20.0 mg/kg/injection, schedule: Q01DX009 (ip), vehicle: saline 97 % of control

CC1CC(C)(C)NCCNC(C)CC(C)(C)NCCN1 (centres undefined)
inactive: dose: 12.5 mg/kg/injection, schedule: Q04DX002 (ip), vehicle: Klucel (hydroxypropylcellulose) (HPC) 97 % of control | dose: 25.0 mg/kg/injection, schedule: Q04DX002 (ip), vehicle: Klucel (hydroxypropylcellulose) (HPC) 94 % of control | dose: 50.0 mg/kg/injection, schedule: Q04DX002 (ip), vehicle: Klucel (hydroxypropylcellulose) (HPC) 94 % of control

CCOC(=O)C1(C(=O)OCC)CCC(OCC)N1C(=O)c1cc(OC)c(OC)cc1[N+](=O)[O-] (centres undefined)
inactive: [12] 105 % of control | [13] 100 % of control | [14] 99 % of control

O=C1/C(=C\c2ccccn2)c2ccccc2N1Cl
inactive: dose: 100.0 mg/kg/injection, schedule: Q01DX001 (ip), vehicle: other 94 % of control | dose: 200.0 mg/kg/injection, schedule: Q01DX001 (ip), vehicle: other 92 % of control | dose: 400.0 mg/kg/injection, schedule: Q01DX001 (ip), vehicle: other 94 % of control

Clc1ccc(N=Cc2ccccc2)cn1
inactive: [11] 105 % of control | [5] 88 % of control | [6] 111 % of control | [7] 100 % of control

Cc1nc(-c2ccc(N=Cc3ccc(N(CCOS(C)(=O)=O)CCOS(C)(=O)=O)cc3)cc2)cs1
inactive: dose: 2.5 mg/kg/injection, schedule: Q04DX003 (ip), vehicle: Klucel (hydroxypropylcellulose) (HPC) 106 % of control | dose: 5.0 mg/kg/injection, schedule: Q04DX003 (ip), vehicle: Klucel (hydroxypropylcellulose) (HPC) 113 % of control | dose: 10.0 mg/kg/injection, schedule: Q04DX003 (ip), vehicle: Klucel (hydroxypropylcellulose) (HPC) 120 % of control | [12] 118 % of control | [13] 88 % of control

CCOC(=O)CSCc1cc(=O)[nH]c(=O)[nH]1
inactive: dose: 100.0 mg/kg/injection, schedule: Q04DX003 (ip), vehicle: saline 96 % of control | dose: 200.0 mg/kg/injection, schedule: Q04DX003 (ip), vehicle: saline 98 % of control | dose: 400.0 mg/kg/injection, schedule: Q04DX003 (ip), vehicle: saline 102 % of control

CCn1c(COc2ccc(Cl)cc2Cl)c(COC(=O)c2cccc(Cl)c2)c2ccccc21
inactive: dose: 100.0 mg/kg/injection, schedule: Q01DX009 (ip), vehicle: carboxymethylcellulose (CMC) 98 % of control and 103 % of control | dose: 100.0 mg/kg/injection, schedule: Q04DX002 (ip), vehicle: carboxymethylcellulose (CMC) 101 % of control and 102 % of control | dose: 200.0 mg/kg/injection, schedule: Q01DX009 (ip), vehicle: carboxymethylcellulose (CMC) 97 % of control and 98 % of control | dose: 200.0 mg/kg/injection, schedule: Q04DX002 (ip), vehicle: carboxymethylcellulose (CMC) 94 % of control and 98 % of control | dose: 400.0 mg/kg/injection, schedule: Q01DX009 (ip), vehicle: carboxymethylcellulose (CMC) 87 % of control | dose: 400.0 mg/kg/injection, schedule: Q04DX002 (ip), vehicle: carboxymethylcellulose (CMC) 95 % of control and 91 % of control

CC(=O)CC(=O)NC1CCCCCC1
inactive: [8] 92 % of control | [12] 100 % of control | [9] 103 % of control | [13] 100 % of control | [10] 97 % of control | [14] 96 % of control

COc1cc2cc3c4cc(OC)c(OC)cc4cc[n+]3c(/C=C/c3ccccc3)c2cc1OC
inactive: dose: 100.0 mg/kg/injection, schedule: Q04DX003 (ip), vehicle: carboxymethylcellulose (CMC) 102 % of control | dose: 200.0 mg/kg/injection, schedule: Q04DX003 (ip), vehicle: carboxymethylcellulose (CMC) 110 % of control | dose: 400.0 mg/kg/injection, schedule: Q04DX003 (ip), vehicle: carboxymethylcellulose (CMC) 100 % of control
